# Assay results taken from US7358076B2, “Sublancin lantibiotic produced by Bacillus subtilis 168” (The University of Maryland, priority 1997, dated 2008).
# What was measured:
# B. cereus T spores [1] = experiment: halo assay on agar plates sprayed with spores, extended incubation; type: cell-based, Bacillus cereus; settings: lawns from sprayed B. cereus T spores, incubation for several days, data not shown
# Experimental: Two methods were employed to assay the activity of sublancin 168; a halo assay on plates, and a liquid assay in culture tubes. Both methods used Bacillus cereus T spores as the test organism. 250 mg of spores, prepared as previously described (12), were suspended in 30 mL of distilled water with a glass homogenizer, heat-shocked at 65° C. for 2 hr, centrifuged, and resuspended in 50% ethanol. This suspension was sprayed onto the surface of Medium A-containing agar plates using a Sigma spray unit (St. Louis Mo.). Prior to spraying, 10-20 μL volumes of serial dilutions of purified sublancin were spotted onto the plate. […] growth of the spores, and the diameters of the halos caused by sublancin inhibition were measured, and the minimum amount of peptide that was required to give an observable halo was noted. For the liquid assay, heat-shocked spores were suspended in sterile water to a final concentration of 2 mg/mL, and then added to culture tubes containing 1% BACTO®-tryptone, 0.1 M TRIS®-Pi, pH 6.8. Prior to adding the spores, serial dilutions of sublancin were added to the tubes. The final concentration of spores was 0.1 mg/mL. The tubes were incubated at 37° C. for 3 hr, using sufficient shaking to keep the spores well suspended. […]
# The ability of sublancin to inhibit bacterial spore outgrowth was also determined. […]
# B. cereus T spores [2] = settings: cited from earlier work
# B. cereus T spores [3] = settings: from reference (30); cited from earlier work
structure (smiles),measurement,setting,value
C=C1NC(=O)CC[C@@H](C(=O)O)NC(=O)[C@H](NC(=O)[C@H](CCCCN)NC(=O)[C@@H](N)Cc2c[nH]c3ccccc23)CSC[C@@H](C(=O)N[C@@H]2C(=O)N3CCC[C@H]3C(=O)NCC(=O)N[C@H](C(=O)N[C@H](C(=O)N[C@@H]3C(=O)NCC(=O)N[C@@H](C)C(=O)N[C@@H](CC(C)C)C(=O)N[C@@H](CCC(N)=O)C(=O)N/C(=C/C)C(=O)N[C@H](C(=O)N[C@@H](Cc4ccccc4)C(=O)N[C@@H](CC(C)C)C(=O)N[C@@H](CCC(N)=O)C(=O)N[C@@H]4C(=O)N[C@@H](CC(C)C)C(=O)N[C@H]5C(=O)N[C@@H](CSC4C)C(=O)NC(=O)[C@H](CC(N)=O)N[C@H](C(=O)N[C@@H](CCCCN)C(=O)N[C@H](C(=O)NC(=C)C(=O)N[C@@H](CCCCN)C(=O)O)[C@@H](C)CC)CSC5C)CSC3C)C(C)C)CSC2C)N[C@@H](CC(C)C)C(=O)NC1=O (stereo partly shown) [subtilin],appearance of halos after extended incubation of the plates,B. cereus T spores [1],remained completely clear
same,concentration required to inhibit outgrowth of these same spores,"B. cereus T spores [2]; B. cereus T spores, from references (27,29)",80 nM
same,"corresponding ratio, spore outgrowth inhibition versus inhibition of exponentially growing cells","B. cereus T spores [2]; comparison value for subtilin, same methods as reference (27)",30 fold
same,"binding and inhibition of spores, reversibility",B. cereus T spores [3],irreversibly
